The numbers were not newly measured in patent US20230292757A1, “SYNERGISTIC AGROCHEMICAL COMPOSITION COMPRISING DIAMIDES AND PLANT GROWTH REGULATORS” (priority 2020, published 2023), which cites them from elsewhere.

The subject of one data set is L. migratoria. The conditions noted are these: oral.
For a further data set, the system named is S. littoralis. The conditions noted are these: oral.

`C=C1C[C@]23C[C@@]1(O)CC[C@H]2[C@@]12C=C[C@H](O)[C@@](C)(C(=O)O1)[C@H]2[C@@H]3C(=O)O` [Gibberellic acid (GA3), Gibberellic acid]: the food consumption entry in the data set on L. migratoria and in the data set on S. littoralis was “significant reduction” each time.
